# Data taken from ChEMBL document CHEMBL1140111, “Potent, orally bioavailable delta opioid receptor agonists for the treatment of pain: discovery of N,N-diethyl-4-(5-hydroxyspiro[chromene-2,4'-piperidine]-4-yl)benzamide (ADL5859)” (J Med Chem, 2008).
# Active and inactive are the calls of the source. No cut-off for these calls is given here.
# Assays:
# [1] = molecular target: Voltage-gated inwardly rectifying potassium channel KCNH2 (Homo sapiens, UniProt Q12809)
# Description: Inhibition of human ERG channel in HEK293 cells by voltage-clamp method
# [2] = molecular target: T1, Delta-type opioid receptor (Homo sapiens, UniProt P41143); experiment: biochemical
# Description: Displacement of [3H]diprenorphine from human delta opioid receptor in CHO cells
# Rattus norvegicus [3] = experiment: Antihyperalgesic effect in rat assessed as reversal of Freund's complete adjuvant-induced paw pressure at 3 mg/kg, po; type: functional
# [4] = molecular target: T1, Delta-type opioid receptor
# Description: Agonist activity at human delta opioid receptor in CHO cells assessed as stimulation of [35S]GTPgammaS binding
# [5] = molecular target: T2, Kappa-type opioid receptor (Homo sapiens, UniProt P41145); experiment: Displacement of [3H]diprenorphine from human kappa opioid receptor in CHO cells; type: cell-based
# Mu-type opioid receptor [6] = molecular target: T3, Mu-type opioid receptor (Homo sapiens, UniProt P35372); experiment: Displacement of [3H]diprenorphine from human mu opioid receptor in CHO cells at 10 uM; type: cell-based
# [7] = molecular target: T2, Kappa-type opioid receptor; experiment: Displacement of [3H]diprenorphine from human kappa opioid receptor in CHO cells at 10 uM; type: cell-based
# Mu-type opioid receptor [8] = molecular target: T3, Mu-type opioid receptor; experiment: Displacement of [3H]diprenorphine from human mu opioid receptor in CHO cells; type: cell-based
# [9] = Oral bioavailability in rat at 3 mg/kg; type: ADME, organism-based; conditions: in vivo
# Mus musculus [10] = experiment: Convulsion activity in mouse upto 1000 mg/kg, po; type: functional, organism-based; set-up: dose 1000 mg/kg
# Rattus norvegicus [11] = experiment: Antidepressant activity in Sprague-Dawley rat assessed as increase in time spent swimming at 3 mg/kg, po in presence of naltrindole by forced swim test; type: functional, organism-based; set-up: dose 3 mg/kg
# Rattus norvegicus [12] = organism: Rattus norvegicus; experiment: Antihyperalgesic effect in rat assessed as reversal of Freund's complete adjuvant-induced paw pressure after 60 mins; type: functional, organism-based
# [13] = Volume of distribution at steady state in dog at 1 mg/kg, iv and 3.0 mg/kg, po; type: ADME, organism-based, Canis lupus familiaris; conditions: in vivo, read-out: Vdss
# [14] = Clearance in rat at 0.25 mg/kg, iv and 3.0 mg/kg, po; type: ADME, organism-based; conditions: in vivo
# Rattus norvegicus [15] = experiment: Antidepressant activity in Sprague-Dawley rat assessed as decrease in immobility time at 3 mg/kg, po by forced swim test; type: functional, organism-based; set-up: dose 3 mg/kg
# [16] = Half life in dog at 3.0 mg/kg, po; type: ADME, organism-based, Canis lupus familiaris; set-up: dose 3 mg/kg, route oral; conditions: in vivo
# Rattus norvegicus [17] = experiment: Convulsion activity in rat upto 1000 mg/kg, po; type: functional, organism-based; set-up: dose 1000 mg/kg
# [18] = Half life in rat at 3.0 mg/kg, po; type: ADME, organism-based; set-up: dose 3 mg/kg, route oral; conditions: in vivo
# [19] = Cmax in rat at 0.25 mg/kg, iv and 3.0 mg/kg, po; type: ADME, organism-based; conditions: in vivo
# [20] = Fraction unbound in human plasma at 2 uM; type: ADME, cell-free; conditions: read-out: PPB
# [21] = Cmax in dog at 1 mg/kg, iv and 3.0 mg/kg, po; type: ADME, organism-based, Canis lupus familiaris; conditions: in vivo
# [22] = Oral bioavailability in dog at 3 mg/kg; type: ADME, organism-based, Canis lupus familiaris; conditions: in vivo
# Rattus norvegicus [23] = organism: Rattus norvegicus; experiment: Antihyperalgesic effect in rat assessed as reversal of Freund's complete adjuvant-induced paw pressure after 30 mins; type: functional, organism-based
# Rattus norvegicus [24] = organism: Rattus norvegicus; experiment: Antihyperalgesic effect in rat assessed as reversal of Freund's complete adjuvant-induced paw pressure; type: functional
# Mus musculus [25] = experiment: Increase in stereotypic behavior in mouse upto 1000 mg/kg, po; type: functional, organism-based; set-up: dose 1000 mg/kg
# [26] = Volume of distribution at steady state in rat at 0.25 mg/kg, iv and 3.0 mg/kg, po; type: ADME, organism-based; conditions: in vivo, read-out: Vdss
# Rattus norvegicus [27] = experiment: Antidepressant activity in Sprague-Dawley rat assessed as increase in time spent swimming at 3 mg/kg, po by forced swim test; type: functional, organism-based; set-up: dose 3 mg/kg
# Rattus norvegicus [28] = experiment: Increase in stereotypic behavior in rat upto 1000 mg/kg, po; type: functional, organism-based; set-up: dose 1000 mg/kg
# [29] = Fraction unbound in rat plasma protein at 2 uM; type: ADME, cell-free; conditions: read-out: PPB
# Liver microsomes [30] = experiment: Metabolic stability in rat liver microsomes; type: ADME, Microsome
# Rattus norvegicus [31] = experiment: Toxicity in rat assessed as EEG disturbances at 10 mg/kg and 30 mg/kg, po; type: organism-based; conditions: in vivo
# Liver microsomes [32] = experiment: Metabolic stability in human liver microsomes; type: ADME, Microsome
# [33] = Metabolic stability in dog liver microsomes after 30 mins; type: ADME, Canis lupus familiaris, Microsome; conditions: read-out: Stability
# [34] = Clearance in dog at 1 mg/kg, iv and 3.0 mg/kg, po; type: ADME, organism-based, Canis lupus familiaris; conditions: in vivo
# [35] = Fraction unbound in dog plasma at 2 uM; type: ADME, cell-free, Canis lupus familiaris; conditions: read-out: PPB
# Rattus norvegicus [36] = experiment: Increase in locomotory activity in rat upto 1000 mg/kg, po; type: functional, organism-based; set-up: dose 1000 mg/kg
# Mus musculus [37] = experiment: Increase in locomotory activity in mouse upto 1000 mg/kg, po; type: functional, organism-based; set-up: dose 1000 mg/kg
# Rattus norvegicus [38] = experiment: Antihyperalgesic effect in rat assessed as reversal of Freund's complete adjuvant-induced paw pressure at 3 mg/kg, po in presence of naltrindole; type: functional, organism-based; set-up: dose 3 mg/kg
# T2 sequence (P41145 whole entry): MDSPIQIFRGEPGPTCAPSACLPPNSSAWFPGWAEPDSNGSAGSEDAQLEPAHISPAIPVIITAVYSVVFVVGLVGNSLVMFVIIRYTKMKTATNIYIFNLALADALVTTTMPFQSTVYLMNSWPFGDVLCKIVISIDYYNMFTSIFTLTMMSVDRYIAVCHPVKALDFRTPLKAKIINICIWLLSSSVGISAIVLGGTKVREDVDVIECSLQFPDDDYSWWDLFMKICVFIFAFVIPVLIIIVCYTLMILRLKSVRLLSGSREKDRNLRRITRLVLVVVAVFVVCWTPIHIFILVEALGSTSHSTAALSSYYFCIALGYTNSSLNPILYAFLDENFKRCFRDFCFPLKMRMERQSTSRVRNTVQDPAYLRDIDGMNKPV
# T1 sequence (P41143 whole entry): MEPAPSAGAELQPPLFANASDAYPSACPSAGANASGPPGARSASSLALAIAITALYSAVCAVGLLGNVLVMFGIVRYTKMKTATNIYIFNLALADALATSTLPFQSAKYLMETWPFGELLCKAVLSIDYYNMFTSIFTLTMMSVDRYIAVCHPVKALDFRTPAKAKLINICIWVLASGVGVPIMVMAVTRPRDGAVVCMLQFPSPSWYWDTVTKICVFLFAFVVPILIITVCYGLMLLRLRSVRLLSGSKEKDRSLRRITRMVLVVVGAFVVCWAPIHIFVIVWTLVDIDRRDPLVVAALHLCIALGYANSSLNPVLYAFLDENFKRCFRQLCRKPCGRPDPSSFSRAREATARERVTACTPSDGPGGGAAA
# Sequence of Voltage-gated inwardly rectifying potassium channel KCNH2 (Q12809 whole entry): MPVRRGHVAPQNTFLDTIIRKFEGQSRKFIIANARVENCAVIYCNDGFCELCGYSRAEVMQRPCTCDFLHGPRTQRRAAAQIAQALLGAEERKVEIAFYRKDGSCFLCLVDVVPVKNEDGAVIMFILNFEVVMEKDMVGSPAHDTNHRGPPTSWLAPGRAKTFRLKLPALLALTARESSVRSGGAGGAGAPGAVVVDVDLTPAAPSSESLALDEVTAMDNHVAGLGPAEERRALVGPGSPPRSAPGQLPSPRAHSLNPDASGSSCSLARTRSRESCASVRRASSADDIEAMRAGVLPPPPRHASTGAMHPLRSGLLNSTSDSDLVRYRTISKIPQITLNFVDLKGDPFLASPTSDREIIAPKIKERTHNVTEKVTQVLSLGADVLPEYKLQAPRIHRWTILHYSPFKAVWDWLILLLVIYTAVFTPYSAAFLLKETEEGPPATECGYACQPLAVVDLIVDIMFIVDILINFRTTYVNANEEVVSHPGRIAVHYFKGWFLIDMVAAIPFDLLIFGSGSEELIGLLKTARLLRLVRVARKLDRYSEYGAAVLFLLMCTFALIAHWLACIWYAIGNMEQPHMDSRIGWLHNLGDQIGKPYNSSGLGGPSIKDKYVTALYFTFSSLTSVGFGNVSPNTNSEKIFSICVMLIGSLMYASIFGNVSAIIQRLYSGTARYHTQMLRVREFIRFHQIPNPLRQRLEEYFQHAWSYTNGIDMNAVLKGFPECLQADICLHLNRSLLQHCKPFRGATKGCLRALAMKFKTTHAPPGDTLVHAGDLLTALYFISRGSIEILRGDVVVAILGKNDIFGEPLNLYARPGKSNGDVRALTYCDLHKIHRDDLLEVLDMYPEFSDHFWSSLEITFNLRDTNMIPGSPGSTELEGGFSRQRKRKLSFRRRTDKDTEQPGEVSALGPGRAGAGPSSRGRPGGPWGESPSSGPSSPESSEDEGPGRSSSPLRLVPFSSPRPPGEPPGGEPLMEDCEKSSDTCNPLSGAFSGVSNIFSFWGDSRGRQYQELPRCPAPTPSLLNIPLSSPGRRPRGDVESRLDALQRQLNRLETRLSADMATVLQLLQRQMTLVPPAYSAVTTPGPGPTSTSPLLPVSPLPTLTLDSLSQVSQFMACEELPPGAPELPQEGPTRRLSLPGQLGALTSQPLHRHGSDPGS
# T3 sequence (P35372 whole entry): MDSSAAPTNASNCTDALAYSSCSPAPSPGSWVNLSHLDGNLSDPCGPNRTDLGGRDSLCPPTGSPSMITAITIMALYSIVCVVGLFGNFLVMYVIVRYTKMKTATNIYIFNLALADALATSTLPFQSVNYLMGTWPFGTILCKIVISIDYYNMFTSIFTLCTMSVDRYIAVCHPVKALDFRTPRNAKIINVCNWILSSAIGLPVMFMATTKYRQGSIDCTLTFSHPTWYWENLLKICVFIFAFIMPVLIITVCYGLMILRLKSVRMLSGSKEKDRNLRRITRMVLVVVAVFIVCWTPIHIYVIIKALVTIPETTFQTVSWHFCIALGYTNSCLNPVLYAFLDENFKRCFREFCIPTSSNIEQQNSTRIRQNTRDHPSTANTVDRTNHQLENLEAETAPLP
structure (smiles),measurement,setting,value
CCN(CC)C(=O)c1ccc(C2=CC3(CCNCC3)Oc3ccc(O)cc32)cc1,IC50,[1],19800 nM
same,Ki,[2],0.43 nM
same,Activity,Rattus norvegicus [3],35%
same,EC50,[4],1.4 nM
same,Ki,[5],830 nM
same,inhibition,Mu-type opioid receptor [6],36%
CCN(CC)C(=O)c1ccc(C2=CC3(CCN(C)CC3)Oc3ccccc32)cc1,inhibition,[7],24%
same,Ki,[2],3.5 nM
same,EC50,[4],89 nM
same,inhibition,Mu-type opioid receptor [6],12%
C1=C(c2ccccc2)c2ccccc2OC12CCNCC2,Ki,[5],3400 nM
same,inhibition,Mu-type opioid receptor [6],42%
C=CCN1C[C@H](C)N([C@H](c2ccc(C(=O)N(CC)CC)cc2)c2cccc(O)c2)C[C@H]1C,Ki,[7],130 nM
same,Ki,[2],0.32 nM
same,EC50,[4],0.4 nM
same,Ki,Mu-type opioid receptor [8],260 nM
same,Ki,[5],3400 nM
CCN(CC)C(=O)c1ccc(C2=CC3(CCNCC3)Oc3cc(O)ccc32)cc1,inhibition,[7],39%
same,inhibition,Mu-type opioid receptor [6],35%
N#Cc1ccc(C2=CC3(CCNCC3)Oc3ccccc32)cc1,inhibition,[7],63%
same,Ki,[2],18 nM
same,EC50,[4],200 nM
same,inhibition,Mu-type opioid receptor [6],60%
c1ccc(C2CC3(CCNCC3)Oc3ccccc32)cc1 (stereo not given),Ki,[2],160 nM
CCN(CC)C(=O)c1ccc(C2=CC3(CCNCC3)Oc3cccc(O)c32)cc1 [ADL-5859],bioavailability,[9],33.4%
same,Activity,Mus musculus [10],Non-toxic
same,Activity,Rattus norvegicus [11],inactive
same,Activity,Rattus norvegicus [12],Active
same,inhibition,[7],37%
same,IC50,[1],78000 nM
same,Ki,[2],0.84 nM
same,Vd,[13],2.5 L/kg
same,Activity,Rattus norvegicus [3],100%
same,clearance,[14],30 mL/min/kg
same,Activity,Rattus norvegicus [15],Active
same,half-life,[16],4.7 h
same,Activity,Rattus norvegicus [17],Non-toxic
same,half-life,[18],5.3 h
same,Cmax,[19],117 nM
same,fraction unbound at 2 µM,[20],0.419
same,Cmax,[21],1730 nM
same,EC50,[4],20 nM
same,bioavailability,[22],66.5%
same,Activity,Rattus norvegicus [23],Active
same,ED50,Rattus norvegicus [24],1.4 mg/kg
same,Activity,Mus musculus [25],Non-toxic
same,Vd,[26],10.7 L/kg
same,Activity,Rattus norvegicus [27],Active
same,Activity,Rattus norvegicus [28],Non-toxic
same,fraction unbound at 2 µM,[29],0.159
same,Stability,Liver microsomes [30],69.2%
same,inhibition,Mu-type opioid receptor [6],32%
same,Activity,Rattus norvegicus [31],Non-toxic
same,Stability,Liver microsomes [32],64.9%
same,remaining at 0.5 h,[33],98.7%
same,clearance,[34],6.67 mL/min/kg
same,fraction unbound at 2 µM,[35],0.152
same,Activity,Rattus norvegicus [36],Non-toxic
same,Activity,Mus musculus [37],Non-toxic
same,Activity,Rattus norvegicus [38],inactive
Cc1ccc(C2=CC3(CCNCC3)Oc3ccccc32)cc1,inhibition,[7],57%
same,inhibition,Mu-type opioid receptor [6],49%
COc1ccc(C2=CC3(CCNCC3)Oc3ccccc32)cc1,inhibition,[7],42%
same,inhibition,Mu-type opioid receptor [6],42%
CCN(CC)C(=O)c1ccc(C2=CC3(CCN(C(C)=O)CC3)Oc3ccccc32)cc1,inhibition,[7],2%
same,IC50,[1],47400 nM
same,Ki,[2],1300 nM
same,inhibition,Mu-type opioid receptor [6],14%
COC(=O)c1ccc(C2=CC3(CCNCC3)Oc3ccccc32)cc1,Ki,[5],520 nM
same,inhibition,Mu-type opioid receptor [6],54%
C=CCN1C[C@H](C)N([C@H](c2ccc(C(=O)N(CC)CC)cc2)c2cccc(OC)c2)C[C@H]1C,inhibition,[7],28%
same,inhibition,Mu-type opioid receptor [6],25%
CCN(CC)C(=O)c1ccccc1C1=CC2(CCNCC2)Oc2ccccc21,inhibition,[7],45%
same,inhibition,Mu-type opioid receptor [6],12%
CCN(CC)C(=O)c1cccc(C2=CC3(CCNCC3)Oc3ccccc32)c1,inhibition,[7],10%
same,Ki,[2],330 nM
same,inhibition,Mu-type opioid receptor [6],12%
CCN(CC)C(=O)c1ccc(C2=CC3(CCNCC3)Oc3c(O)cccc32)cc1,inhibition,[7],28%
same,Ki,[2],360 nM
same,inhibition,Mu-type opioid receptor [6],4%
Oc1ccc(C2=CC3(CCNCC3)Oc3ccccc32)cc1,inhibition,[7],58%
same,IC50,[1],643 nM
same,Ki,[2],59 nM
same,EC50,[4],220 nM
same,inhibition,Mu-type opioid receptor [6],54%
FC(F)(F)c1ccc(C2=CC3(CCNCC3)Oc3ccccc32)cc1,Ki,[2],150 nM
same,Ki,[5],2000 nM
same,inhibition,Mu-type opioid receptor [6],42%
O=S(=O)(Cc1ccc(Cl)cc1)N1CCC2(CC1)CC(c1ccccc1)c1ccccc1O2 (stereo not given),Ki,[2],500 nM
O=C(O)c1ccc(C2=CC3(CCNCC3)Oc3ccccc32)cc1,inhibition,[7],14%
same,Ki,[2],11 nM
same,EC50,[4],220 nM
same,inhibition,Mu-type opioid receptor [6],13%
CCN1CCC2(C=C(c3ccc(C(=O)N(CC)CC)cc3)c3ccccc3O2)CC1,inhibition,[7],13%
same,inhibition,Mu-type opioid receptor [6],13%
